According to US20030129753A1, “Chemical screening method” (priority 2002, published 2003):
Values after ≈ are worked out from the molar mass of the structure shown.

Assay: solubility in ethanol by conventional methods
Assay type: physicochemical
Conditions: organic solvent or mixture, separate experiments by conventional methods
Experimental: The invention was tested on the sulfisoxazole/polyvinylpyrrolidone system in ethanol where sulfisoxazole was the active ingredient and polyvinylpyrrolidone was the carrier of choice. The total time required to evaporate ethanol for each sample was less than 30 seconds. […] This information is important because these solubility parameters determine the minimum amount (volume) of solvent required to co-dissolve the active ingredient and the carrier molecules. Next eight ethanol solutions were prepared of different sulfisoxazole to polyvinylpyrrolidone weight (molar) ratios.

solubility: 16 mg/mL (≈ 59.9 mM)
Compound: Cc1noc(NS(=O)(=O)c2ccc(N)cc2)c1C [sulfisoxazole]
